Data published in article PMC7305236, “The atypical chemokine receptor ACKR3/CXCR7 is a broad-spectrum scavenger for opioid peptides” (Nature Communications, 2020).
Like-named read-outs stand apart in the source and are kept apart here. Starred links: 1 amine or outer side, 2 acyl side, 3 side chain; linkers in the order of their positions; H or OH if unused. Non-standard residues stand in square brackets, D forms with d. Residues, ends and D or L forms follow the SMILES beside them. X1 = N[C@@H](Cc1ccccc1)CN(CC(=O)[*:2])[*:1]

What was measured:
Assay in all cases: Figure S2a opioid peptide screen on chemokine receptors
Parameters in all cases: dose or concentration left out as unconfirmed
CCR6 = molecular target: T1, CCR6 (Homo sapiens, UniProt P51684); type: cell-based
T1 construct: expressed in transfected cells
T1 sequence (P51684 1-374): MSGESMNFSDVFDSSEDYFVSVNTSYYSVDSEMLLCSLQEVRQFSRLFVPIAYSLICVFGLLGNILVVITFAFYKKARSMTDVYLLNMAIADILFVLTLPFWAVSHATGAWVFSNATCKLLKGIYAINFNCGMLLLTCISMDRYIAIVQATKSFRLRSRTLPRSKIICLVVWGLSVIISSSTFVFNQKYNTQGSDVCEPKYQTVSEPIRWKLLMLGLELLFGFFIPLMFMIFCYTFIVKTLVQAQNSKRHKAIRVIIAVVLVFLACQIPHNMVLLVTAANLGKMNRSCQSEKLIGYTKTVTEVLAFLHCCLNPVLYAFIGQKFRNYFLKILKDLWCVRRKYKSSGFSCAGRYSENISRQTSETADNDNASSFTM

ACKR4 = molecular target: T2, ACKR4 (Homo sapiens, UniProt Q9NPB9); conditions: read-out: ACKR4 activity, ctrl+ = 100, Figure S2a
T2 sequence (Q9NPB9 1-350): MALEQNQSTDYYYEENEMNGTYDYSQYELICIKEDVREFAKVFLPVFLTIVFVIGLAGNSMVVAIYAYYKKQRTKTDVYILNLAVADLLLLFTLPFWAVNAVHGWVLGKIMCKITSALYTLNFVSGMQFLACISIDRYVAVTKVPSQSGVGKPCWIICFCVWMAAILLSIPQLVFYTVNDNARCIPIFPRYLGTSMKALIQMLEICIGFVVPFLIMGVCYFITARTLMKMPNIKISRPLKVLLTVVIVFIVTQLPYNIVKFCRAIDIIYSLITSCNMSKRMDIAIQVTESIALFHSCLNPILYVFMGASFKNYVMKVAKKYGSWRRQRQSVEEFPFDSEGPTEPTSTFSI

XCR1 = molecular target: T3, XCR1 (Homo sapiens, UniProt P46094); type: cell-based
T3 construct: expressed in transfected cells
T3 sequence (P46094 1-333): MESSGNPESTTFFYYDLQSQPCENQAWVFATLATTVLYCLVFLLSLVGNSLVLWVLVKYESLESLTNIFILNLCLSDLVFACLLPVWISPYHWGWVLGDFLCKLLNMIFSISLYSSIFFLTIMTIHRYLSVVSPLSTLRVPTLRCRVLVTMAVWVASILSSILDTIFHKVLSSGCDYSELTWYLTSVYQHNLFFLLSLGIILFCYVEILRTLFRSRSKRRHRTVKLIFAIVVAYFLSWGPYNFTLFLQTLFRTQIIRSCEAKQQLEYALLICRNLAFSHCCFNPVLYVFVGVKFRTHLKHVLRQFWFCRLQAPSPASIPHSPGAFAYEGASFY

CCR8 = CCR8 (Homo sapiens, UniProt P51685); conditions: read-out: CCR8 activity, ctrl+ = 100, Figure S2a
Chain of CCR8 (P51685 whole entry): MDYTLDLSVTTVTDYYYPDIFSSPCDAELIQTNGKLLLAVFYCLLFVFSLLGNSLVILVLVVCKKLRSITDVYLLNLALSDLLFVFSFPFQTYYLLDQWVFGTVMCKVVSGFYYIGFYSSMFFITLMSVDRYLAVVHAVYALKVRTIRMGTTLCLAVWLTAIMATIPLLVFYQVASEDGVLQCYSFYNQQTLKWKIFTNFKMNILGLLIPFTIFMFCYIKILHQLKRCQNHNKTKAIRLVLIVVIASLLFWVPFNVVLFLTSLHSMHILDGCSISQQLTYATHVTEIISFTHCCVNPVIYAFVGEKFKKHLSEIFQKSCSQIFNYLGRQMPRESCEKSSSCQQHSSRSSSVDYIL

CCR3 = molecular target: T4, CCR3 (Homo sapiens, UniProt P51677); conditions: read-out: CCR3 activity, ctrl+ = 100, Figure S2a
T4 sequence (P51677 1-355): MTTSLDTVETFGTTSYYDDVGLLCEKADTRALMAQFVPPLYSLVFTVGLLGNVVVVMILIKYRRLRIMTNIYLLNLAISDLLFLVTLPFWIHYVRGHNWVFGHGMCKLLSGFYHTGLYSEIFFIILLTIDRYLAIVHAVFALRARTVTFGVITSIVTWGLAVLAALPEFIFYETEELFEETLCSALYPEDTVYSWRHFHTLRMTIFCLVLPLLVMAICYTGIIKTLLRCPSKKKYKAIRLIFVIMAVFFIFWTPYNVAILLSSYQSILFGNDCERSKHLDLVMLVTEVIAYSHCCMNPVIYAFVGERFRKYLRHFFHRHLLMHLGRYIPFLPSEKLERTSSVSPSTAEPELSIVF

CXCR1 = molecular target: T5, CXCR1 (Homo sapiens, UniProt P25024); type: cell-based
T5 construct: expressed in transfected cells
T5 sequence (P25024 1-350): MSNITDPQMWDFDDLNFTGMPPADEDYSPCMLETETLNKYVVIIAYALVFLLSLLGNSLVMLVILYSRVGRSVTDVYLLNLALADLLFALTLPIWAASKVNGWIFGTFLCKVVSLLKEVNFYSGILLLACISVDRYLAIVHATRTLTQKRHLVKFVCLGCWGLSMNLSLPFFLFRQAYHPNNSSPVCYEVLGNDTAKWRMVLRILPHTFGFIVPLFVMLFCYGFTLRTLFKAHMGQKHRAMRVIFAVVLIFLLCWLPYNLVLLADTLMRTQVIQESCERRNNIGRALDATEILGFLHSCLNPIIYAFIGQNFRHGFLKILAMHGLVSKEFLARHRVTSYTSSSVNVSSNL

CCR1 = molecular target: T6, CCR1 (Homo sapiens, UniProt P32246); type: cell-based
T6 construct: expressed in transfected cells
T6 sequence (P32246 1-355): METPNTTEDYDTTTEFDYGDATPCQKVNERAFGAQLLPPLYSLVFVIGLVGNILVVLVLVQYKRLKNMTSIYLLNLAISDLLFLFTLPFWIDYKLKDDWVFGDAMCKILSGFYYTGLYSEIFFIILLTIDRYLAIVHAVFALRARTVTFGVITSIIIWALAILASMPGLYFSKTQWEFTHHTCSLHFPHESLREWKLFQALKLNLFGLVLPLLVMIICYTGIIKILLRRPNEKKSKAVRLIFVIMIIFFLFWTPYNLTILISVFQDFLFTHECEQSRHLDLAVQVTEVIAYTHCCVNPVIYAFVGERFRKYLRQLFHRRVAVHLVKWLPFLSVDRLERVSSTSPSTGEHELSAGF

[1] = replicate 1, read-out: CCR6 activity, ctrl+ = 100
[2] = replicate 2, read-out: CCR6 activity, ctrl+ = 100
[3] = replicate 3, read-out: CCR6 activity, ctrl+ = 100
[4] = replicate 1, read-out: XCR1 activity, ctrl+ = 100
[5] = replicate 2, read-out: XCR1 activity, ctrl+ = 100
[6] = replicate 3, read-out: XCR1 activity, ctrl+ = 100
[7] = replicate 1, read-out: CXCR1 activity, ctrl+ = 100
[8] = replicate 2, read-out: CXCR1 activity, ctrl+ = 100
[9] = replicate 3, read-out: CXCR1 activity, ctrl+ = 100
[10] = replicate 1, read-out: CCR1 activity, ctrl+ = 100
[11] = replicate 2, read-out: CCR1 activity, ctrl+ = 100
[12] = replicate 3, read-out: CCR1 activity, ctrl+ = 100

Question: What does the source list for CC(C)C[C@H](NC(=O)[C@H](Cc1ccccc1)NC(=O)CNC(=O)CNC(=O)[C@@H](N)Cc1ccc(O)cc1)C(=O)N[C@@H](CCCN=C(N)N)C(=O)N[C@@H](CCCN=C(N)N)C(=O)N[C@@H](CCC(N)=O)C(=O)N[C@@H](Cc1ccccc1)C(=O)N[C@@H](CCCCN)C(=O)N[C@H](C(=O)N[C@H](C(=O)N[C@H](C(=O)O)[C@@H](C)O)C(C)C)C(C)C [Dynorphin B]?
Answer: activation (CCR6; [1]): -0.194%; activation (CCR6; [2]): -0.375%; activation (CCR6; [3]): -3.12%; activation (ACKR4; replicate 1): -5.6%; activation (ACKR4; replicate 2): -0.628%; activation (ACKR4; replicate 3): 0.166%; activation (XCR1; [4]): -1.79%; activation (XCR1; [5]): 0.791%; activation (XCR1; [6]): 9.32%; activation (CCR8; replicate 1): 2.83%; activation (CCR8; replicate 2): -25.3%; activation (CCR8; replicate 3): 18.8%; activation (CCR3; replicate 1): 22.6%; activation (CCR3; replicate 2): -7.56%; activation (CXCR1; [7]): -0.474%; activation (CXCR1; [8]): -0.947%; activation (CXCR1; [9]): 0.71%; activation (CCR1; [10]): -23.7%; activation (CCR1; [11]): -13.7%; activation (CCR1; [12]): 27.5%

Question: What does the source list for NC(=O)[C@H](Cc1ccccc1)NC(=O)[C@H](Cc1c[nH]c2ccccc12)NC(=O)[C@@H]1CCCN1C(=O)[C@@H](N)Cc1ccc(O)cc1 [Endomorphin-1]?
Answer: activation (CCR6; [1]): 0.653%; activation (CCR6; [2]): 2.69%; activation (ACKR4; replicate 1): 3.4%; activation (ACKR4; replicate 2): 1.77%; activation (XCR1; [4]): 4.23%; activation (XCR1; [5]): 6.11%; activation (CCR8; replicate 1): -25.5%; activation (CCR8; replicate 2): 19.4%; activation (CCR3; replicate 1): 18.4%; activation (CCR3; replicate 2): 4.97%; activation (CXCR1; [7]): 0.195%; activation (CXCR1; [8]): -0.597%; activation (CCR1; [10]): 3.57%; activation (CCR1; [11]): -19.2%

Question: How did the activation (CCR6; [1]) turn out when C[C@H](NC(=O)CNC(=O)[C@@H](NC(=O)[C@H](Cc1ccccc1)NC(=O)CNC(=O)CNC[C@@H](N)Cc1ccccc1)[C@@H](C)O)C(=O)N[C@@H](CCCNC(=N)N)C(=O)N[C@@H](CCCCN)C(=O)N[C@@H](CO)C(=O)N[C@@H](C)C(=O)N[C@@H](CCCNC(=N)N)C(=O)N[C@@H](CCCCN)C(N)=O [FG Nociceptin 1-13] (H-[X1]GFTGARKSARK-NH2) was run?
Answer: 0.145%

Question: What about the activation (CCR6; [2]) of the same molecule?
Answer: -0.683%

Question: What about the activation (CCR6; [3]) of the same molecule?
Answer: 5.07%

Question: What about the activation (ACKR4; replicate 2) of the same molecule?
Answer: -0.784%

Question: What about the activation (ACKR4; replicate 3) of the same molecule?
Answer: 0.45%

Question: What about the activation (XCR1; [4]) of the same molecule?
Answer: 0.7%

Question: What about the activation (XCR1; [5]) of the same molecule?
Answer: 1.1%

Question: What about the activation (XCR1; [6]) of the same molecule?
Answer: 16.8%

Question: What about the activation (CCR8; replicate 1) of the same molecule?
Answer: -24.5%

Question: What about the activation (CCR8; replicate 2) of the same molecule?
Answer: 3.75%

Question: And the activation (CCR8; replicate 3)?
Answer: 4.53%

Question: What about the activation (CCR3; replicate 1) of the same molecule?
Answer: 13%

Question: What about the activation (CCR3; replicate 2) of the same molecule?
Answer: 6.22%

Question: And the activation (CCR3; replicate 3)?
Answer: 14.1%

Question: What about the activation (CXCR1; [7]) of the same molecule?
Answer: -0.231%

Question: And the activation (CXCR1; [8])?
Answer: 1.41%

Question: What about the activation (CXCR1; [9]) of the same molecule?
Answer: 1.07%

Question: What about the activation (CCR1; [10]) of the same molecule?
Answer: 5.65%

Question: What about the activation (CCR1; [11]) of the same molecule?
Answer: -10.1%

Question: And the activation (CCR1; [12])?
Answer: -16.6%

Question: What does the source list for C[C@H](NC(=O)CNC(=O)[C@@H](NC(=O)[C@H](Cc1ccccc1)NC(=O)CNC(=O)CNC(=O)[C@@H](N)Cc1ccccc1)[C@@H](C)O)C(=O)N[C@@H](CCCNC(=N)N)C(=O)N[C@@H](CCCCN)C(=O)N[C@@H](CO)C(=O)N[C@@H](C)C(=O)N[C@@H](CCCNC(=N)N)C(=O)N[C@@H](CCCCN)C(N)=O [Nociceptin 1-13]?
Answer: activation (CCR6; [1]): 0.552%; activation (CCR6; [2]): -0.975%; activation (CCR6; [3]): -0.351%; activation (ACKR4; replicate 1): -3.36%; activation (ACKR4; replicate 2): -5.01%; activation (ACKR4; replicate 3): 1.05%; activation (XCR1; [4]): 2.91%; activation (XCR1; [5]): 3.06%; activation (XCR1; [6]): 4.45%; activation (CCR8; replicate 1): -35.6%; activation (CCR8; replicate 2): -2.22%; activation (CCR8; replicate 3): 6.11%; activation (CCR3; replicate 1): 6.49%; activation (CCR3; replicate 2): 6.25%; activation (CCR3; replicate 3): 14.8%; activation (CXCR1; [7]): 0.237%; activation (CXCR1; [8]): 1.23%; activation (CXCR1; [9]): -0.725%; activation (CCR1; [10]): -0.621%; activation (CCR1; [11]): 1.74%; activation (CCR1; [12]): -35.9%

Question: With CC(C)C[C@H](NC(=O)[C@H](CCCCN)NC(=O)[C@H](CCCN=C(N)N)NC(=O)[C@H](C)NC(=O)[C@H](CO)NC(=O)[C@H](CCCCN)NC(=O)[C@H](CCCN=C(N)N)NC(=O)[C@H](C)NC(=O)CNC(=O)[C@@H](NC(=O)[C@H](Cc1ccccc1)NC(=O)CNC(=O)CNC(=O)[C@@H](N)Cc1ccccc1)[C@@H](C)O)C(=O)N[C@@H](C)C(=O)N[C@@H](CC(N)=O)C(=O)N[C@@H](CCC(N)=O)C(=O)O [Nociceptin] as the molecule, how does the activation (CCR6; [1]) read?
Answer: -0.76%

Question: What about the activation (CCR6; [2]) of the same molecule?
Answer: 0.601%

Question: What about the activation (ACKR4; replicate 1) of the same molecule?
Answer: -1%

Question: What about the activation (ACKR4; replicate 2) of the same molecule?
Answer: -5.23%

Question: What about the activation (XCR1; [4]) of the same molecule?
Answer: 1.08%

Question: What about the activation (XCR1; [5]) of the same molecule?
Answer: -2.39%

Question: And the activation (CCR8; replicate 1)?
Answer: 27.1%

Question: And the activation (CCR8; replicate 2)?
Answer: -5.76%

Question: And the activation (CCR3; replicate 1)?
Answer: 8.85%

Question: What about the activation (CCR3; replicate 2) of the same molecule?
Answer: -14.3%

Question: What about the activation (CXCR1; [7]) of the same molecule?
Answer: -0.193%

Question: What about the activation (CXCR1; [8]) of the same molecule?
Answer: 0.511%

Question: And the activation (CCR1; [10])?
Answer: -16.6%

Question: And the activation (CCR1; [11])?
Answer: -34.2%
